1 molecule from patent US11026910B2, “α- and γ-truxillic acid derivatives and pharmaceutical compositions thereof” (The Research Foundation for The State University of New York, priority 2012, dated 2021) can be followed below.

The structures appear in SMILES notation. “Also recorded” adds a separate entry of the source.

For assay [1], the system named is dorsal raphe (DR) serotonin (5-HT) neurons. Put plainly: Patch-clamp electrophysiology in brain slices, glutamate-mediated EPSCs. It is filed as cell-based. As for the experimental part: Whole-cell-voltage clamp recordings of dorsal raphe (DR) serotonin (5-HT) neurons were performed as previously described. Briefly, DR neurons were visualized using an upright microscope (BX 51 WI, Olympus, Tokyo, Japan) equipped with a differential interference contrast and infrared imaging system. Somatic recordings from DR neurons were obtained with path electrodes ([…]) back-filled with potassium gluconate based internal solution of the following composition: 120 mM potassium gluconate, 10 mM KCl, 10 mM Na2-phosphocreatine, 10 mM HEPES, 1 mM MgCl2, 1 mM EGTA, 2 mM Na2-ATP, 0.25 mM Na-GTP, pH 7.3 (Adjusted with KOH; Osmolarity, 280 to 290 mOsmol/l). All the recordings were conducted in the presence of GABAA receptor antagonist picrotoxin (100 μM). Excitatory postsynaptic currents (EPSCs) were evoked with a single square stimulus (intensity, 1 to 10 V, duration, 100 to 200 μs) delivered via a glass stimulating electrode. […]
The amplitude of EPSCs was determined by measuring the average current during a 2-ms period at the peak of each EPSC and subtracted from the baseline current determined during a 5-ms time window before the stimulus. All EPSC amplitudes were normalized to the mean baseline amplitude recorded for at least 10 min before drug application. […]
(In patch-clamp work, channel activity is measured electrically.)

In assay [2] the test system is male C57Bl6 mice. Kind of assay: Carrageenan-induced paw edema and thermal hyperalgesia. It is filed as in vivo. As for the experimental part: (§1) We used male C57Bl6 mice (22-30 g, Taconic Farms) for all experiments. The animals were group housed at room temperature and kept on a 12:12 hour light:dark cycle with ad libitum access to water and food. The animals were habituated to the experimental room for one week before testing. All experiments were approved by the Stony Brook University Institutional Animal Care and Use Committee. The experimenter was blinded to the treatment conditions of each animal.
Paw edema was induced by injecting 1% λ-carrageenan (20 μl, in sterile saline) into the plantar surface of the left hind paw and a control solution of saline into the right hind paw using a 27 gauge needle. Paw diameters were measured before carrageenan injection and 4 hours after injection using digital electronic calipers (Fisher) and expressed to the nearest ±0.01 mm. […] The cannabinoid receptor antagonists, rimonabant and SR144528 (3 mg/kg, i.p.), in ethanol:emulphor:saline (1:1:18), were injected 15 min before the FABP inhibitor. Edema is reported as the change in paw diameter at 4 hr over the baseline. Changes in paw diameter of saline-injected contralateral paws were negligible. Thermal hyperalgesia measured the latency to withdraw the paw from a focused beam of radiant heat applied to the plantar surface of the hind paw using a Hargreaves plantar apparatus (Ugo Basile) set at an intensity of 3.0. For each mouse, the average latencies consisted of three trials spaced at least 5 minutes apart. The mice were habituated to the test chamber for 30 min. The cutoff time was set at 30 sec.
Behavioral data are presented as means±S.E.M. for the vehicle and inhibitor-treated groups, each consisting of at least 6 animals. Statistical significance between vehicle and inhibitor groups was determined using unpaired t-tests or one-way ANOVA followed by Dunnett's post hoc analysis. In all cases, differences of p<0.05 were considered significant.
For orientation: Carrageenan injected into the paw causes an acute inflammation.

The test system of assay [3] is mice. Kind of assay: Acetic acid-induced writhing. Type of assay: in vivo. As for the experimental part:
as §1

Assay [4] concerns brain levels of the endocannabinoid anandamide (AEA). Kind of assay: Brain levels of the endocannabinoid anandamide (AEA). It is filed as in vivo, mice. Particulars: FIG. 17. As for the experimental part:
as §1

With `O=C(O)[C@H]1[C@@H](c2ccccc2)[C@@H](C(=O)Oc2cccc3ccccc23)[C@@H]1c1ccccc1` (single isomer, unassigned) [Compound 26, α-2,4-diphenyl-cyclobutane-1,3-dicarboxylic Acid mono-(1-naphthol) Ester], the “amplitude of EPSCs” value in assay [1] (bath application 10 μM, n=8) is 107±6.7 % of baseline. For the same molecule, in assay [1] (concluded from EPSC amplitude, 10 μM), the “agonist properties at CB1 receptors” value was “is not a CB1 receptor agonist”. Further, the “antinociceptive and anti-edematous effects after rimonabant and SR144528 pretreatment” value in assay [2] (20 mg/kg i.p., antagonists 3 mg/kg i.p. 15 min before) is “completely reversed; also recorded: blocked”. Also, in assay [2] (20 mg/kg, i.p. (FIG. 16A)), the “carrageenan-induced paw edema, 24 hrs after inhibitor administration” value is given as “reduced” and the “carrageenan-induced thermal hyperalgesia, 24 hrs after inhibitor administration” value is reported as “reduced”. The carrageenan-induced thermal hyperalgesia result in assay [2] (20 mg/kg, i.p., 45 min prior to carrageenan (FIG. 10B)) is “significantly reduced; also recorded: alleviates”. In addition, in assay [2] (20 mg/kg, i.p., paw diameter at 4 hr (FIG. 10C)), the carrageenan-induced paw edema result is “significantly reduced; also recorded: reduces”. In addition, the “antinociceptive effects with SR141716 (3 mg/kg) and GW6471 (4 mg/kg)” value in assay [3] (FIG. 16E) is reported as “reversed”. Moreover, in assay [3] (FIGS. 16C-D), the acetic acid-induced writhing result is “reduces”. Also, in assay [4], the “brain levels of anandamide (AEA)” value is given as “elevates”.
